In patent publication EP0048954A2, “Beta-lactam compounds, process for the preparation thereof and intermediate products for the preparation thereof” (SAGAMI CHEMICAL RESEARCH CENTER, priority 1980, dated 1982):
Values after ≈ are worked out from the molar mass of the structure shown. Values joined by “and” are separate entries in the source; they are usually repeats but may differ in a detail not shown here. Equal values may be shown once. Where a name gives a salt, the structure may show the parent alone. Read-outs that look alike come from different tables or passages of the source.

Columns and labels:
Test in all cases: Antibacterial activity, minimum inhibition concentration (method of The Chemotherapy Association, Japan)
Format in all cases: cell-based
[1] = tested on: Bacillus subtilis ATCC 6633; details: for MIC: Bacillus subtilis
Method: (§1) Antibacterial activities of the compounds according to this invention, which had been prepared in the preceding Examples, were measured according to the method prescribed by The Committee of Amendment of "The method for measurement of the minimum inhibition concentration", The Chemotherapy Association, Japan (See Chemotherapy, Vol. 22, No. 6, pp. 1126 - 1128 (1974) and Vol. 29, No. 1, pp. 76 - 79 (1981)).
(§2) The abbreviations A to P will be used in the following Tables 2 to 8.
(§3) Test results are shown in terms of the minimum inhibition concentration (µg/mℓ.) in the following Tables 2 to 8.

[2] = tested on: Klebsiella pneumoniae; details: for MIC: Klebsiella pneumoniae
Method: as §1, §2, §3

[3] = tested on: Serratia marcescens 1023
Method: as §1, §2, §3

[4] = tested on: Escherichia coli NIHJC-2; details: for MIC: Escherichia coli
Method: as §1, §2, §3

[5] = tested on: Proteus mirabillis B-30-2 IFO-3849
Method: as §1, §2, §3

[6] = tested on: Serratia marcescens IFO-3736; details: for MIC: Serratia marcescens; for minimum inhibition concentration: strain F: Serratia marcescens IFO-3736
Method: as §1, §2, §3

[7] = tested on: Proteus morgani Kono; details: for MIC: read-out: minimum inhibition concentration
Method: as §1, §2, §3

[8] = tested on: Staphylococcus aureus 6538-P
Method: as §1, §2, §3

[9] = tested on: Salmonella typhimurium 3173; details: Salmonella enterica, TYPHIMURIUM
Method: as §1, §2, §3

[10] = tested on: Escherichia coli NIHJ; details: for MIC: Escherichia coli, read-out: minimum inhibition concentration
Method: as §1, §2, §3

[11] = tested on: Citrobactor freundii NIH-10018 -68; details: read-out: minimum inhibition concentration
Method: as §1, §2, §3

[12] = tested on: Pseudomonas aeruginosa NCTC-10490; details: for MIC: Pseudomonas aeruginosa; for minimum inhibition concentration: strain M: Pseudomonas aeruginosa NCTC-10490
Method: as §1, §2, §3

[13] = tested on: Enterobactor cloacae NCTC-9394; details: for MIC: read-out: minimum inhibition concentration
Method: as §1, §2, §3

[14] = tested on: Proteus vulgaris OX-19; details: Proteus vulgaris
Description: as §2, §3

[15] = tested on: Proteus rettgeri NIH-96; details: for MIC: Providencia rettgeri; for minimum inhibition concentration: strain I: Proteus rettgeri NIH-96
Description: as §2, §3

[16] = ATCC6633, strain B: Bacillus subtilis ATCC 6633, read-out: minimum inhibition concentration
[17] = strain C: Klebsiella pneumoniae, read-out: minimum inhibition concentration
[18] = Serratia marcescens, 1023, strain E: Serratia marcescens 1023, read-out: minimum inhibition concentration
[19] = NIHJC2, strain L: Escherichia coli NIHJC-2, read-out: minimum inhibition concentration
[20] = strain G: Proteus mirabillis B-30-2 IFO-3849, read-out: minimum inhibition concentration
[21] = IFO3736, strain F: Serratia marcescens IFO-3736, read-out: minimum inhibition concentration
[22] = strain A: Staphylococcus aureus 6538-P, read-out: minimum inhibition concentration
[23] = strain D: Salmonella typhimurium 3173, read-out: minimum inhibition concentration
[24] = strain K: Escherichia coli NIHJ
[25] = strain O: Citrobactor freundii NIH-10018 -68
[26] = NCTC10490, strain M: Pseudomonas aeruginosa NCTC-10490, read-out: minimum inhibition concentration
[27] = strain N: Enterobactor cloacae NCTC-9394
[28] = OX19, strain H: Proteus vulgaris OX-19, read-out: minimum inhibition concentration
[29] = NIH96, strain I: Proteus rettgeri NIH-96, read-out: minimum inhibition concentration

| SMILES | MIC [1, 16] | MIC [2, 17] | MIC [3, 18] | MIC [4, 19] | MIC [5, 20] | MIC [6, 21] | MIC ([7]; strain J: Proteus morgani Kono) | MIC [8, 22] | MIC [9, 23] | MIC [10, 24] | MIC [11, 25] | MIC [12, 26] | MIC [13, 27] | MIC [14, 28] | MIC [15, 29] | also measured |
| --- | --- | --- | --- | --- | --- | --- | --- | --- | --- | --- | --- | --- | --- | --- | --- | --- |
| CC1=C(C(=O)O)N2C(=O)C(NC(=O)C(=CCl)c3csc(N)n3)C2SC1 (single isomer, unassigned) [Compound 23, 7-[2-chlromethylene-2-(2-aminothiazol-4-yl)acetamido]-desacetoxycephelosporanic acid sodium salt] | 50 µg/mL | 50 µg/mL | 100 µg/mL | 100 µg/mL | 25 µg/mL | > 100 µg/mL | > 100 µg/mL | 3.12 µg/mL | 50 µg/mL | 6.25 µg/mL | 100 µg/mL | > 100 µg/mL | 12.5 µg/mL | 12.5 µg/mL | 0.39 µg/mL |  |
| COc1ccc(C(C(=O)NC2C(=O)N3C(C(=O)O)=C(COC(C)=O)CS[C@H]23)=C(Cl)Cl)cc1 (stereo partly shown) [Compound 27, 7-[2-dichloromethylene-2-(4-methoxyphenyl)acetamido]-3-acetoxymethyl-3-cephem-4-carboxylic acid] | 3.12 µg/mL (≈ 6.23 µM) | > 100 µg/mL | 6.25 µg/mL (≈ 12.5 µM) | > 100 µg/mL | > 100 µg/mL | > 100 µg/mL | > 100 µg/mL | > 100 µg/mL | > 100 µg/mL | 100 µg/mL (≈ 199 µM) | > 100 µg/mL | 100 µg/mL (≈ 199 µM) | > 100 µg/mL | > 100 µg/mL | 3.12 µg/mL (≈ 6.23 µM) |  |
| CC(=O)OCC1=C(C(=O)[O-])N2C(=O)C(NC(=O)C(=CCl)c3csc(N)n3)[C@H]2SC1.[Na+] (stereo partly shown) [Compound 20, 7-[2-chloromethylene-2-(2-aminothiazol-4-yl)acetamido]-3-acetoxymethyl-3-cephem-4-carboxylic acid sodium salt] |  |  |  |  |  |  |  |  |  |  |  |  |  |  |  | MIC ([1]; ATCC6633, read-out: minimum inhibition concentration, strain B: Bacillus subtilis ATCC 6633): 6.25 µg/mL; MIC ([2]; read-out: minimum inhibition concentration, strain C: Klebsiella pneumoniae): 1.56 µg/mL; MIC ([3]; Serratia marcescens, 1023, read-out: minimum inhibition concentration, strain E: Serratia marcescens 1023): 12.5 µg/mL; MIC ([4]; NIHJC2, read-out: minimum inhibition concentration): 3.12 µg/mL; MIC ([5]; read-out: minimum inhibition concentration, strain G: Proteus mirabillis B-30-2 IFO-3849): 1.56 µg/mL; MIC ([6]; IFO3736, read-out: minimum inhibition concentration): 6.25 µg/mL; MIC [7]: 1.56 µg/mL; MIC ([8]; Staphylococcus aureus, 6538P, read-out: minimum inhibition concentration, strain A: Staphylococcus aureus 6538-P): 1.56 µg/mL; MIC ([9]; read-out: minimum inhibition concentration, strain D: Salmonella typhimurium 3173): 3.12 µg/mL; MIC [10]: 0.05 µg/mL; MIC [11]: 1.56 µg/mL; MIC ([12]; NCTC10490, read-out: minimum inhibition concentration): 6.25 µg/mL; MIC [13]: 0.78 µg/mL; MIC ([14]; OX19, read-out: minimum inhibition concentration, strain H: Proteus vulgaris OX-19): 0.2 µg/mL; MIC ([15]; NIH96, read-out: minimum inhibition concentration, strain I: Proteus rettgeri NIH-96): 0.025 µg/mL |
| CO/N=C(\C(=O)N[C@@H]1C(=O)N2C(C(=O)O)=C(COC(C)=O)CS[C@H]12)c1csc(N)n1 [Cefotaxime, reference compound] |  | 0.1 µg/mL (≈ 0.22 µM) | 50 µg/mL (≈ 110 µM) | 0.2 µg/mL (≈ 0.439 µM) |  | 0.2 µg/mL (≈ 0.439 µM) |  | 0.39 µg/mL (≈ 0.856 µM) | 0.1 µg/mL (≈ 0.22 µM) |  | 0.2 µg/mL (≈ 0.439 µM) | 0.78 µg/mL (≈ 1.71 µM) | 0.39 µg/mL (≈ 0.856 µM) | < 0.025 µg/mL |  | minimum inhibition concentration ([1]; strain B: Bacillus subtilis ATCC 6633): 6.25 µg/mL (≈ 13.7 µM); minimum inhibition concentration ([2]; strain C: Klebsiella pneumoniae): 0.05 µg/mL (≈ 0.11 µM); minimum inhibition concentration ([3]; strain E: Serratia marcescens 1023): 100 µg/mL (≈ 220 µM); minimum inhibition concentration ([4]; strain L: Escherichia coli NIHJC-2): 0.1 µg/mL (≈ 0.22 µM); minimum inhibition concentration ([5]; strain G: Proteus mirabillis B-30-2 IFO-3849): 0.025 µg/mL (≈ 0.0549 µM); minimum inhibition concentration ([5]; strain G: Proteus mirabillis B-30-2 IFO-3849, listed as Cefota-xime): 0.1 µg/mL (≈ 0.22 µM); minimum inhibition concentration [6]: 0.2 µg/mL (≈ 0.439 µM); minimum inhibition concentration ([6]; listed as Cefota-xime): 0.39 µg/mL (≈ 0.856 µM); minimum inhibition concentration ([7]; strain J: Proteus morgani Kono): 0.39 µg/mL (≈ 0.856 µM); minimum inhibition concentration ([7]; strain J: Proteus morgani Kono, listed as Cefota-xime): 1.56 µg/mL and 0.78 µg/mL; minimum inhibition concentration [10, 24]: <0.00625 µg/mL; minimum inhibition concentration ([10]; strain K: Escherichia coli NIHJ, listed as Cefota-xime): <0.025 µg/mL; minimum inhibition concentration [12]: 0.39 µg/mL (≈ 0.856 µM); minimum inhibition concentration ([12]; listed as Cefota-xime): 0.39 µg/mL (≈ 0.856 µM); minimum inhibition concentration [13, 27]: 0.2 µg/mL (≈ 0.439 µM); minimum inhibition concentration ([13]; strain N: Enterobactor cloacae NCTC-9394, listed as Cefota-xime): 0.2 µg/mL (≈ 0.439 µM); minimum inhibition concentration [15]: <0.00625 µg/mL; minimum inhibition concentration ([15]; listed as Cefota-xime): <0.025 µg/mL |
| CC(=O)OCC1=C(C(=O)O)N2C(=O)C(NC(=O)C(=C(Cl)Cl)c3ccc(NC(=O)OC(C)(C)C)cc3)C2SC1 (stereo not shown) [4-(1), 7-[2-dichloromethylene-2-(4-tert-butoxycarbonyl-aminophenyl)acetamido]-3-acetoxymethyl-3-cephem-4-carboxylic acid] | 6.25 µg/mL (≈ 10.7 µM) | > 100 µg/mL | 6.25 µg/mL (≈ 10.7 µM) | > 100 µg/mL | > 100 µg/mL | > 100 µg/mL | > 100 µg/mL | 0.39 µg/mL (≈ 0.665 µM) | > 100 µg/mL | 6.25 µg/mL (≈ 10.7 µM) | > 100 µg/mL | 50 µg/mL (≈ 85.3 µM) | > 100 µg/mL | > 100 µg/mL | 6.25 µg/mL (≈ 10.7 µM) |  |
| CC1(C)S[C@@H]2C(NC(=O)C(=C(Cl)Cl)c3cccs3)C(=O)N2[C@H]1C(=O)O (stereo partly shown) [Compound 37, 6-[2-dichloromethylene-2-(2-thienyl)acetamido]-penicillanic acid] | 1.56 µg/mL (≈ 3.7 µM) | > 100 µg/mL | 0.05 µg/mL (≈ 0.119 µM) | > 100 µg/mL | > 100 µg/mL | > 100 µg/mL | > 100 µg/mL | 0.1 µg/mL (≈ 0.237 µM) | > 100 µg/mL | 0.78 µg/mL (≈ 1.85 µM) | > 100 µg/mL | 6.25 µg/mL (≈ 14.8 µM) | 100 µg/mL (≈ 237 µM) | 50 µg/mL (≈ 119 µM) | 0.25 µg/mL (≈ 0.593 µM) |  |
| Cn1nnnc1SCC1=C(C(=O)O)N2C(=O)C(NC(=O)C(=C(Cl)Cl)c3ccco3)C2SC1 (stereo not shown) [Compound 1, 7-[2-dichloromethylene-2-(2-furyl)acetamido]-3-(1-methyl-IH-tetrazol-5-yl)thiomethyl-3-cephem-4-carboxylic acid] | 1.56 µg/mL (≈ 3.02 µM) | 25 µg/mL (≈ 48.3 µM) | 1.56 µg/mL (≈ 3.02 µM) | 25 µg/mL (≈ 48.3 µM) | 50 µg/mL (≈ 96.6 µM) | 50 µg/mL (≈ 96.6 µM) | 50 µg/mL (≈ 96.6 µM) | 0.39 µg/mL (≈ 0.754 µM) | 12.5 µg/mL (≈ 24.2 µM) | < 0.025 µg/mL | 12.5 µg/mL (≈ 24.2 µM) | 3.12 µg/mL (≈ 6.04 µM) | 6.25 µg/mL (≈ 12.1 µM) | 0.2 µg/mL (≈ 0.387 µM) | < 0.025 µg/mL |  |
